Reference: publication PMC10961089, “Epidermal growth factor receptor inhibition potentiates chemotherapeutics‐mediated sensitization of metastatic breast cancer stem cells” (Cancer Reports, 2024)
Where two headings read alike, the source gives them in different places.

Key:
MDA‐MB‐231 [1] = test: MTT cytotoxicity assay in MDA-MB-231; format: cell-based, human; conditions: for IC50: 48 h, read-out: IC50 (μM) in MDA‐MB‐231 (mean ± SD)
Protocol: (§1) TNBC cell lines (ER^−, PR^−, HER2^−)—MDA‐MB‐231 (ATCC HTB‐26) and MDA‐MB‐468 (ATCC HTB‐132) were procured from ATCC and cultured in Roswell Park Memorial Institute Media (RPMI‐1640) and Dulbecco's Modified Eagle's Medium (DMEM), respectively, supplemented with 10% FBS and 1% Penicillin–Streptomycin solution. Cells were maintained at 5% CO2 at 37°C in a humid atmosphere.[6], [26] The control cell line, Human Embryonic Kidney—HEK‐293 (ATCC CRL‐3216) was also obtained from ATCC and cultured in DMEM.[5], [25]
(§2) To evaluate the cytotoxicity profile of the potential EGFR inhibitors (compounds) against TNBC cell lines—MDA‐MB‐231, MDA‐MB‐468, and control cell line HEK293, cells were seeded at a cell density of 5 × 10^3 cells/well in complete medium onto 96‐well plates. Here, the non‐tumoral human embryonic kidney (HEK293) epithelial cells have been utilized as a control cell line to compare the IC50 values of the compounds between cancerous and non‐cancerous cell lines with a big therapeutic window. The use of HEK293 cells as compared to other non‐cancerous cell lines are easy to maintain in culture and the results obtained from HEK293 are highly reproducible and consistent.[27] Briefly, the cells were incubated at 37°C for 12 h to attain morphology. After 12 h, cells were serum starved by replacing the complete media with media containing 2% FBS to synchronize the cells. Post‐12 h of synchronization, cells were treated with an increasing concentration (0.1, 1, 10, 100 μM) of all the compounds (1a, 1b, 1c, 1d, 1e, 1f, 1g, 1h, 1i, 1j, 1k). Separately, TNBC cells were treated with increasing concentration (0.01, 0.1, 1 μM) of Doxorubicin (Sigma‐Aldrich, St Louis, MO, USA) in presence of the selected compounds (1c, 1e, 1g, 1h, 1j, and 1k) at 5 μM concentration or combination of selected compounds (1c, 1e, 1g, 1h, 1j, and 1k) at increasing concentration (1, 2.5, 5, 10 μM) in presence of Doxorubicin (0.01 μM) for 48 h. In addition, the CD24^+‐breast cancer cells and CD24^−/CD44^+‐breast CSC populations, being sorted by Magnetic Activated Cell Sorting (MACS) from MDA‐MB‐231 cells as described previously,[6] were also treated with increasing concentrations of Doxorubicin (0.01–1 μM), in the presence or absence of 1e (10–30 μM), or PD153035 (10 μM) (Sigma‐Aldrich, St Louis, MO, USA). MTT assay was performed to evaluate the cytotoxicity of these compounds against the TNBC cell lines, and the sorted populations as described previously.[6] All the experiments were performed thrice and the IC50 values of the compounds and Doxorubicin were calculated using GraphPad Prism software version 9 (San Diego, CA, USA). Similarly, the percent inhibition of the sorted cell populations by chemotherapeutic drug, doxorubicin in the absence/presence of potent compound 1e or standard EGFR inhibitor, PD153035 was evaluated utilizing GraphPad Prism Version 9 (San Diego, CA, USA).

MDA‐MB‐468 [2] = test: MTT cytotoxicity assay in MDA-MB-468; format: cell-based, human; conditions: for IC50: 48 h, read-out: IC50 (μM) in MDA‐MB‐468 (mean ± SD); for decrease in the IC50 of Doxorubicin in the presence of the compound: MDA-MB-468, versus Doxorubicin alone
Protocol: as §1, §2

HEK‐293 = test: MTT cytotoxicity assay in control cell line HEK-293; format: cell-based, human; conditions: non-tumoral control cell line, read-out: IC50 (μM) in HEK‐293 (mean ± SD)
Protocol: as §1, §2

MDA‐MB‐231 [3] = test: Cell migration (chemotaxis), Boyden-Chamber assay; format: cell-based, human; conditions: Doxorubicin 0.01 μM + compound 5 μM (PD153035 10 μM) vs 10% FBS and Doxorubicin alone
Protocol: (§3) TNBC cell lines—MDA‐MB‐231, MDA‐MB‐468, and the sorted CD24^+‐breast cancer cells, and CD24^−/CD44^+‐breast CSC populations from MDA‐MB‐231 [6] were seeded at a density of 1 × 10^6 cells/well to evaluate their migratory potential by Boyden‐Chamber assay. […] At the end of the treatment period, the cells were plated at a density of 5 × 10^3 cells/well in the upper chamber of the Boyden chamber assembly and 10% FBS in the lower chamber was used as a chemoattractant. Separately, the cells in the upper chamber were treated with Doxorubicin (0.01–0.1 μM) alone or with the potential EGFR inhibitors (compounds—1c, 1e, 1g, 1h, 1j, and 1k (5 μM) based on their low IC50 values) or a commercial EGFR inhibitor, PD153035 (10 μM) and incubated for 4 h followed by fixation and staining as described previously.[28], [29]

MDA‐MB‐468 [4] = test: Cell migration (chemotaxis), Boyden-Chamber assay; format: cell-based, human; conditions: Doxorubicin 0.01 μM + compound 5 μM (PD153035 10 μM) vs 10% FBS and Doxorubicin alone
Protocol: as §3

[5] = tested on: Bax and Cytochrome‐C in MDA‐MB‐231 cells; test: Gene expression of apoptotic genes, semi-quantitative RT-PCR; format: cell-based, human; conditions: MDA-MB-231, doxorubicin + compound 5 μM, 24 h
Protocol: Briefly, the cells were incubated at 37°C with serum starvation followed by culturing as described above. […] Briefly, the template RNA (1 μg) was utilized for cDNA synthesis using a First‐strand cDNA synthesis kit (Thermo Scientific, USA) according to the manufacturer's protocol. Thermal cycler (Mastercycler® nexus, Eppendorf) was used for the amplification of the expression of apoptotic genes—Bax, Bcl2, Cytochrome‐C, and target gene EGFR with the help of Dream Taq DNA Polymerase PCR Master Mix (Thermo Scientific, USA) along with human gene‐specific forward and reverse primer sequences of the apoptotic genes and EGFR (Table ST1). The expression of the target genes was normalized to the Eukaryotic 18S rRNA.

[6] = tested on: CD24^−/CD44^+‐breast CSCs xenotransplanted tumors; test: Preclinical orthotopic xenograft murine tumor model (tumor size, weight, H&E histology); format: in vivo, C57BL/6 mice; conditions: doxorubicin high dose 10 mg/kg intratumoral vs untreated breast CSCs transplanted group
Protocol: Animal studies have been carried out with the prior approval of the Institutional Animal Ethics Committee (IICT/IAEC/025/2023). C57BL/6 female mice of age 6–8 weeks (N = 35) were initially immunosuppressed with cyclophosphamide (50 mg/kg of body weight, i.p) on alternate days for 2 weeks. For generating a preclinical orthotopic xenograft tumor model, 2 × 10^6 GFP expressing sorted stable CD24^+‐breast cancer cells and CD24^−/CD44^+‐breast CSCs were orthotopically xeno‐transplanted subcutaneously at the fourth mammary fat pad of immune‐suppressed mice (n = 5/group). Subsequently, intratumoral administration of Doxorubicin at a low dose (2.5 mg/kg of body weight), high dose (10 mg/kg of body weight), and/or combinatorial treatment of the potent EGFR inhibitor, compound 1e (50 mg/kg of body weight) or the commercial EGFR inhibitor, PD153035 (50 mg/kg of body weight) with a low dose of doxorubicin was performed to the palpable tumors of breast CSCs at day‐3 post‐transplantation.
Euthanization of mice was performed on day 14 post‐transplantation and tumor tissues were collected for histological and immunohistochemical analysis. Histological differences in tumor tissues were evaluated using hematoxylin and eosin staining (H&E).[28], [30]

c1ccc2c(C(c3c[nH]c4ccccc34)c3c[nH]c4ccccc34)c[nH]c2c1 [1b]
IC50 (MDA‐MB‐231 [1]; compound alone, MTT): 22.1 ± 1.96 µM
IC50 (MDA‐MB‐468 [2]; compound alone, MTT): 90.8 ± 7.87 µM
IC50 (HEK‐293; compound alone): 231 ± 15.9 µM

Oc1ccc(C(c2c[nH]c3ccccc23)c2c[nH]c3ccccc23)cc1 [1c]
IC50 (MDA‐MB‐231 [1]; compound alone, MTT): 30.5 ± 2.93 µM
decrease in the IC50 of Doxorubicin in the presence of the compound (MDA‐MB‐468 [2]): 10 fold
IC50 (MDA‐MB‐468 [2]; compound alone, MTT): 25 ± 2.41 µM
migratory potential (MDA‐MB‐231 [3]): significant decrease
migratory potential (MDA‐MB‐468 [4]): significant decrease
expression of pro‐apoptotic genes Bax and Cytochrome‐C [5]: marked increase
IC50 (HEK‐293; compound alone): 127 ± 16.8 µM

c1ccc(C(c2c[nH]c3ccccc23)c2c[nH]c3ccccc23)nc1 [1d]
IC50 (MDA‐MB‐231 [1]; compound alone, MTT): 44.4 ± 2.11 µM
IC50 (MDA‐MB‐468 [2]; compound alone, MTT): 47.6 ± 5.99 µM
IC50 (HEK‐293; compound alone): 219 ± 11.6 µM

CN(C)c1ccc(C(c2c[nH]c3ccccc23)c2c[nH]c3ccccc23)cc1 [1f]
IC50 (MDA‐MB‐231 [1]; compound alone, MTT): 73 ± 1.13 µM
IC50 (MDA‐MB‐468 [2]; compound alone, MTT): 130 ± 7.76 µM
IC50 (HEK‐293; compound alone): ≥ 1000 µM

c1ccc2c(C(c3c[nH]c4ccccc34)C(c3c[nH]c4ccccc34)c3c[nH]c4ccccc34)c[nH]c2c1 [1g]
IC50 (MDA‐MB‐231 [1]; compound alone, MTT): ≥ 1000 µM
decrease in the IC50 of Doxorubicin in the presence of the compound (MDA‐MB‐468 [2]): 10 fold
IC50 (MDA‐MB‐468 [2]; compound alone, MTT): 29.6 ± 6.04 µM
migratory potential (MDA‐MB‐231 [3]): significant decrease
migratory potential (MDA‐MB‐468 [4]): significant decrease
expression of pro‐apoptotic genes Bax and Cytochrome‐C [5]: marked increase
IC50 (HEK‐293; compound alone): ≥ 1000 µM

COc1cc(C(c2c[nH]c3ccccc23)c2c[nH]c3ccccc23)ccc1O [1j]
IC50 (MDA‐MB‐231 [1]; compound alone, MTT): 114 ± 1.25 µM
decrease in the IC50 of Doxorubicin in the presence of the compound (MDA‐MB‐468 [2]): 10 fold
IC50 (MDA‐MB‐468 [2]; compound alone, MTT): 68.4 ± 5.51 µM
expression of pro‐apoptotic genes Bax and Cytochrome‐C [5]: marked increase
IC50 (HEK‐293; compound alone): 327 ± 20.7 µM

c1ccc2c(C(c3ccc(C(c4c[nH]c5ccccc45)c4c[nH]c5ccccc45)cc3)c3c[nH]c4ccccc34)c[nH]c2c1 [1k, 1,4‐bis(di(1H‐indol‐3‐yl)methyl)benzene]
IC50 (MDA‐MB‐231 [1]; Homo sapiens, MDA-MB-231, 48 h, compound alone, MTT): 14.7 ± 1.36 µM
IC50 (MDA‐MB‐468 [2]; Homo sapiens, MDA-MB-468, compound alone, MTT): 20.4 ± 2.41 µM
decrease in the IC50 of Doxorubicin in the presence of the compound (MDA‐MB‐468 [2]): 10 fold
expression of pro‐apoptotic genes Bax and Cytochrome‐C [5]: marked increase
IC50 (HEK‐293; Homo sapiens, HEK293, compound alone): 235 ± 12.5 µM

COc1cccc2c1C(=O)c1c(O)c3c(c(O)c1C2=O)C[C@@](O)(C(=O)CO)C[C@@H]3O[C@H]1C[C@H](N)[C@H](O)[C@H](C)O1 [Doxorubicin, reference compound]
IC50 (MDA‐MB‐231 [1]; Homo sapiens, MDA-MB-231, 48 h, IC50 of doxorubicin alone or in presence of compound at 5 μM): 0.1 µM
inhibition at 0.01 µM (MDA‐MB‐231 [1]; Homo sapiens, MDA-MB-231, Doxorubicin 0.01 µM alone, read-out: Percent inhibition (%) in MDA-MB-231 (Mean ± SEM)): 21.1 ± 0.701%
IC50 (MDA‐MB‐231 [1]; IC50 of doxorubicin alone or in presence of compound at 5 μM): 0.11 ± 0.01 µM
tumor size and weight [6]: significantly lower
inhibition at 0.01 µM (MDA‐MB‐468 [2]; Homo sapiens, MDA-MB-468, Doxorubicin 0.01 µM alone, read-out: Percent inhibition (%) in MDA-MB-468 (Mean ± SEM)): 19.1 ± 1.08%
IC50 (MDA‐MB‐468 [2]; Homo sapiens, MDA-MB-468, IC50 of doxorubicin alone or in presence of compound at 5 μM): 0.4 ± 0.008 µM
